In PubChem BioAssay (NCI):
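Compound exposure: 48 hours, 5 concentrations, 96-well plates. At the GI50, growth is halved. TGI: total growth inhibition.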

Columns and labels:
Assay in all cases: NCI anticancer screen, dose series, 48 h
RPMI-8226 leukemia = system: RPMI-8226 leukemia
HS 578T breast = system: HS 578T breast
ACHN renal = system: ACHN renal
BT-549 breast = system: BT-549 breast
SK-MEL-5 melanoma = system: SK-MEL-5 melanoma
CAKI-1 renal = system: CAKI-1 renal
SF-268 CNS = system: SF-268 CNS
OVCAR-5 ovarian = system: OVCAR-5 ovarian
DMS 114 small cell lung = system: DMS 114 small cell lung
M19-MEL melanoma = system: M19-MEL melanoma

Structure (SMILES)	GI50 (RPMI-8226 leukemia)	TGI (RPMI-8226 leukemia)	GI50 (HS 578T breast)	TGI (HS 578T breast)	GI50 (ACHN renal)	TGI (ACHN renal)	GI50 (BT-549 breast)	TGI (BT-549 breast)	GI50 (SK-MEL-5 melanoma)	TGI (SK-MEL-5 melanoma)	GI50 (CAKI-1 renal)	TGI (CAKI-1 renal)	GI50 (SF-268 CNS)	TGI (SF-268 CNS)	GI50 (OVCAR-5 ovarian)	TGI (OVCAR-5 ovarian)	TGI (DMS 114 small cell lung)	TGI (M19-MEL melanoma)
COc1cc(/C=N\Nc2ccccc2)ccc1OC(=O)c1ccccc1	3.79 µM	> 55.9 µM	18 µM	> 100 µM	0.675 µM	> 100 µM	8.34 µM	62.3 µM	1530 nM	18.9 µM	2270 nM	33.7 µM	4.54 µM	> 100 µM	12.8 µM	> 100 µM		
O=C(Nc1c[nH]c(=O)[nH]c1=O)Oc1ccccc1		> 100 µM		> 100 µM		> 100 µM		> 100 µM		> 100 µM		> 100 µM		> 100 µM		> 100 µM		
Cc1ccccc1NC(=O)C(=O)C(C(=O)c1ccccc1F)C1OC(=O)c2ccccc21 (stereo not given)		48.3 µM				> 100 µM				86.5 µM		50 µM		62.5 µM		> 100 µM	53.3 µM	
C(=C\c1ccc2ccccc2c1Nc1ccccc1)/c1ccccc1		> 72.5 µM				> 63.9 µM				> 100 µM		> 83.8 µM		> 100 µM		> 100 µM	> 100 µM	> 100 µM
O=C1N(c2ccc(Cl)cc2)C(=O)C2(SC=NN2Cc2ccccc2)N1c1ccc(Cl)cc1 (stereo not given)		> 100 µM				> 100 µM				> 100 µM				> 100 µM			> 100 µM	> 100 µM
NC1(C(=O)O)CCC(C(=O)O)CC1 (stereo not given)		> 100 µM				> 100 µM				> 100 µM		> 100 µM		> 100 µM		> 100 µM	> 100 µM	> 100 µM
C#Cc1c(C)c(/C=C/C(C)=C\C(=O)OC)n(C)c1C		> 100 µM				> 100 µM						> 100 µM		> 100 µM		> 100 µM	> 100 µM	> 100 µM
COc1ccc2c(c1O)[C@@]13CCCC=C1[C@@H](C2)N(C)CC3		> 100 µM		> 100 µM		> 100 µM		> 100 µM		> 100 µM		> 100 µM		> 100 µM		> 100 µM		
COc1ccc(/C=C\c2cc(OC)c(OC)c(OC)c2)cc1NC(=O)/C=C/c1cc(OC)c(OC)c(OC)c1	2.9 µM	> 100 µM	5.94 µM	> 100 µM	6.76 µM	> 100 µM	7.96 µM	77.4 µM	2210 nM	6.73 µM	2940 nM	> 100 µM	> 100 µM	> 100 µM	5.74 µM	> 100 µM		
N/N=C1/C(=O)N(c2ccc(Cl)cc2)C(=O)C(=O)C1c1nc2ccccc2s1 (stereo not given)		> 100 µM				> 100 µM				> 100 µM		> 100 µM		> 100 µM		> 100 µM	> 100 µM	> 100 µM
CCOC(=O)Nc1cc2c(c(N)n1)N=C(c1ccc(Cl)cc1Cl)CN2		> 100 µM		1.41 µM		20.8 µM		33.1 µM		0.999 µM		33.7 µM		25.5 µM		45.1 µM		
